In US20100256177A1, “Flavopereirine derivatives for cancer therapy” (priority 2004, published 2010):
Converted amounts (≈) assume the structure as drawn.

Assays:
Format in all cases: cell-based
[1] = tested on: SW620 (colon) human tumor cell line; assay: three day MTT cytotoxicity assay, SW620 colon; settings: 72 hours; for IC50 (μg/mL) of Flavoperereine derivatives in human tumor cell lines, SW620 Colon: SW620 colon cells
Description: (§1) A number of the Flavopereirine derivatives were tested for cytotoxicity against nine (9) human tumor cell lines. Briefly, a three day MTT cytotoxicity assay was performed, which is based on the principle of uptake of MTT (3-(4,5-dimethylthiazol-2-yl)-2,5-diphenyl tetrazolium bromide), a tetrazolium salt, by the metabolically active cells where it is metabolized by active mitochondria into a blue colored formazan product that is read spectrophotometrically. MIT was dissolved in phosphate buffered saline with a pH of 7.4 to obtain an MTT concentration of 5 mg/ml; the resulting mixture was filtered through a 0.22-micron filter to sterilize and remove a small amount of insoluble residue. For each type of tumor cell, 10000 to 15000 cells were seeded in a 96-well culture plate and incubated with the individual Flavopereirine derivatives in concentration ranging from 1-20 μg/ml in a CO2 incubator for a total of 72 hours. Control cells not treated with the Flavopereirine derivatives were similarly incubated. The assay was terminated by adding 100 μg (20 μl) of MTT to each well, then incubating for additional one hour, and finally adding 50 μl of 10% SDS-0.01N HCl to each well to lyse the cells and dissolve formazan. After incubating for one hour, the plate was read spectrophotometrically at 540 nm and the percentage of cytotoxicity calculated using the following formula:
(§2) Cytotoxicity percentage=100×[1-(X/R1)], where X=(absorbance of treated sample at 540 nm)−(absorbance of blank at 540 nm) R1=absorbance of control sample at 540 nm.
(§3) The IC50 Values of the cytotoxicity defined as the concentration at which 50% of the cells are killed in vitro was calculated for each cell line treated with each of the Flavopereirine derivatives.
(§4) The cell lines are ovary (PA-1), breast (MCF-7), prostate (DU145), pancreas (MiaPaCa.2), oral cavity (KB), lung (L132), colon (SW620), and larynx (HeP2).

[2] = tested on: PA1 (ovary) human tumor cell line; assay: three day MTT cytotoxicity assay, PA1 ovarian; settings: PA1 ovarian cells, 72 hours
Description: as §1, §2, §3, §4

[3] = tested on: L132 (lung) human tumor cell line; assay: three day MTT cytotoxicity assay, L132 lung; settings: L132 lung cells, 72 hours
Description: as §1, §2, §3, §4

[4] = tested on: ECV-304 (endothelial) cell line; assay: three day MTT cytotoxicity assay, ECV-304 endothelial; settings: ECV-304 endothelial cells, 72 hours
Description: as §1, §2, §3

[5] = tested on: KB (oral cavity) human tumor cell line; assay: three day MTT cytotoxicity assay, KB oral; settings: KB oral cells, 72 hours
Description: as §1, §2, §3, §4

[6] = tested on: Hep2 (larynx) human tumor cell line; assay: three day MTT cytotoxicity assay, Hep2 larynx; settings: 72 hours; for IC50 (μg/mL) of Flavoperereine derivatives in human tumor cell lines, Hep2 Larynx: Hep2 larynx cells
Description: as §1, §2, §3, §4

[7] = tested on: MCF7 (breast) human tumor cell line; assay: three day MTT cytotoxicity assay, MCF7 breast; settings: MCF7 breast cells, 72 hours
Description: as §1, §2, §3, §4

[8] = tested on: MiaPaca2 (pancreas) human tumor cell line; assay: three day MTT cytotoxicity assay, MiaPaca2 pancreas; settings: 72 hours; for IC50 (μg/mL) of Flavoperereine derivatives in human tumor cell lines, MiaPaca2 Pancreas: MiaPaca2 pancreas cells
Description: as §1, §2, §3, §4

[9] = tested on: DU145 (prostate) human tumor cell line; assay: three day MTT cytotoxicity assay, DU145 prostate; settings: 72 hours; for IC50 (μg/mL) of Flavoperereine derivatives in human tumor cell lines, DU145 Prostate: DU145 prostate cells
Description: as §1, §2, §3, §4

Row | SMILES | IC50 (μg/mL) of Flavoperereine derivatives in human tumor cell lines, SW620 Colon [1] [µg/mL] | IC50 (μg/mL) of Flavoperereine derivatives in human tumor cell lines, PA1 Ovarian [2] [µg/mL] | IC50 (μg/mL) of Flavoperereine derivatives in human tumor cell lines, L132 Lung [3] [µg/mL] | IC50 (μg/mL) of Flavoperereine derivatives in human tumor cell lines, ECV-304 Endothelial [4] [µg/mL] | IC50 (μg/mL) of Flavoperereine derivatives in human tumor cell lines, KB Oral [5] [µg/mL] | IC50 (μg/mL) of Flavoperereine derivatives in human tumor cell lines, Hep2 Larynx [6] [µg/mL] | IC50 (μg/mL) of Flavoperereine derivatives in human tumor cell lines, MCF7 Breast [7] [µg/mL] | IC50 (μg/mL) of Flavoperereine derivatives in human tumor cell lines, MiaPaca2 Pancreas [8] [µg/mL] | IC50 (μg/mL) of Flavoperereine derivatives in human tumor cell lines, DU145 Prostate [9] [µg/mL] | IC50 ([1]; Homo sapiens, SW-620, SW620 colon cells, read-out: IC50 (μg/mL) of Flavoperereine derivatives in human tumor cell lines, SW620 Colon) [µg/mL] | IC50 ([2]; Homo sapiens, read-out: IC50 (μg/mL) of Flavoperereine derivatives in human tumor cell lines, PA1 Ovarian) [µg/mL] | IC50 ([3]; Homo sapiens, read-out: IC50 (μg/mL) of Flavoperereine derivatives in human tumor cell lines, L132 Lung) [µg/mL] | IC50 ([4]; Homo sapiens, read-out: IC50 (μg/mL) of Flavoperereine derivatives in human tumor cell lines, ECV-304 Endothelial) [µg/mL] | IC50 ([7]; Homo sapiens, read-out: IC50 (μg/mL) of Flavoperereine derivatives in human tumor cell lines, MCF7 Breast) [µg/mL] | IC50 ([5]; Homo sapiens, read-out: IC50 (μg/mL) of Flavoperereine derivatives in human tumor cell lines, KB Oral) [µg/mL] | IC50 ([6]; Homo sapiens, HEp-2, Hep2 larynx cells, read-out: IC50 (μg/mL) of Flavoperereine derivatives in human tumor cell lines, Hep2 Larynx) [µg/mL] | IC50 ([8]; Homo sapiens, MIA PaCa-2, MiaPaca2 pancreas cells, read-out: IC50 (μg/mL) of Flavoperereine derivatives in human tumor cell lines, MiaPaca2 Pancreas) [µg/mL] | IC50 ([9]; Homo sapiens, DU-145, DU145 prostate cells, read-out: IC50 (μg/mL) of Flavoperereine derivatives in human tumor cell lines, DU145 Prostate) [µg/mL]
1 | CCOc1ccc2[n+](c1)CCc1c-2[nH]c2ccccc12 [Compound 24, 3-ethoxy-6,7-dihydroindolo[2,3-a]quinolizinium] | 30 | 38 | 20 | 64 | 50 | 89 |  |  |  |  |  |  |  |  |  |  |  | 
2 | BrCCCOc1ccc2c3[nH]c4ccccc4c3cc[n+]2c1.[O-][Cl+3]([O-])([O-])[O-] [Compound 30] | 6 | 2 | 10 | 6 | 10 | 1.5 | 6 | 4 | 7.5 |  |  |  |  |  |  |  |  | 
3 | CCOc1ccc2c3[nH]c4ccccc4c3cc[n+]2c1 [Compound 29, 3-ethoxyindolor-2,3-alquinolizinium] | 10 | 5 | 15 | 4 | 10 | 8.0 |  |  |  |  |  |  |  |  |  |  |  | 
4 | CCCCOc1ccc2[n+](c1)CCc1c-2[nH]c2ccccc12.[Br-] [Compound 27] | 4 | 4.7 |  |  | 7 | 5 | 6 | 7.5 | 9 |  |  |  |  |  |  |  |  | 
5 | [Br-].c1ccc(COc2ccc3c4[nH]c5ccccc5c4cc[n+]3c2)cc1 [Compound 31] | 5 | 4 | 4.5 | 13.5 | <1 | 3 | 4 | <1 | 4.5 |  |  |  |  |  |  |  |  | 
6 | Oc1ccc2[n+](c1)CCc1c-2[nH]c2ccccc12 [Compound 22, 3-hydroxy-6,7-dihydroindolo[2,3-a]quinolizinium] | >100 | >100 | >100 |  | >100 | >100 | >100 | >100 | >100 |  |  |  |  |  |  |  |  | 
7 | CCCCOc1ccc2c3[nH]c4ccccc4c3cc[n+]2c1.[Br-] [Compound 33] | 1.4 | <1 |  |  | 1.6 | 2.4 | 3 | 2 | 5 |  |  |  |  |  |  |  |  | 
8 | Fc1ccc(COc2ccc3c4[nH]c5ccccc5c4cc[n+]3c2)cc1.[O-][Cl+3]([O-])([O-])[O-] [Compound 32] | 5 | 6 | <1 | 24 | <1 | 4 | <1 | <1 | 2 |  |  |  |  |  |  |  |  | 
9 | Fc1ccc(COc2ccc3[n+](c2)CCc2c-3[nH]c3ccccc23)cc1.[O-][Cl+3]([O-])([O-])[O-] [Compound 25] | 44 | 36 | 9 | 24 | 8 | 44 | 34 | 30 | 41 |  |  |  |  |  |  |  |  | 
10 | C1=CC2=C3N=c4ccccc4=C3CCN2C=C1OCc1ccccc1 [Compound 23, 3-benzyloxy-6,7-dihydroindolo[2,3-a]quinolizine] |  |  |  |  |  |  |  |  |  | 11 (≈ 33.7 µM) | 31 (≈ 95 µM) | 20 (≈ 61.3 µM) | 16 (≈ 49 µM) | 5 (≈ 15.3 µM) | 12 (≈ 36.8 µM) | 17 (≈ 52.1 µM) | 10 (≈ 30.6 µM) | 10 (≈ 30.6 µM)
11 | c1ccc(COc2ccc3c4[nH]c5ccccc5c4cc[n+]3c2)cc1 [Compound 28, 3-benzyloxyindolo[2,3-a]quinolizinium] | <1 | 1.5 | 2 | 4 | 2 | 1.5 | 5 | 2 | 2 |  |  |  |  |  |  |  |  | 
12 | Brc1ccc(COc2ccc3[n+](c2)CCc2c-3[nH]c3ccccc23)cc1.[Br-] [Compound 26] | >100 | >100 |  | 12 | 6 | 24 | >100 | 9.5 | 7.5 |  |  |  |  |  |  |  |  | 
